# Laboratory results reported in patent US20250319110A1, “SURFACE CALR CHEMICAL INDUCERS” (THE CHILDREN'S MEDICAL CENTER CORPORATION, priority 2022, published 2025).
# Where a name gives a salt, the structure may show the parent alone. Where a SMILES comes first, the peptide text is derived from it. The star is where a group is joined. Cbz = O=C(OCc1ccccc1)*
# Tested on: reactive oxygen species (ROS)
# Experiment: ROS production by CALR agonists (ROS+ / ROS− classification of screen hits)
# Type: cell-based, human
# Settings: CALR agonists that do not stimulate ROS production or only to negligible levels
# Protocol: To systematically evaluate pathways triggering surface CALR, a panel of 1200 bioactive small molecules in human cells were screened. Surface CALR expression was evaluated by imaging a CALR-antibody coupled with a fluorophore and by a SPLIT-TURBO ID construct targeting the association of […] (Cadherin 2), a membrane protein, and CALR. 93 out of 1200 compounds screened increased surface CALR with a robust dosage response. Chemical annotation further supported that ROS+ drugs were associated with FOXO1A and oxidative stress, while the ROS− drugs were associated with G protein-coupled receptor signaling and cellular calcium ion homeostasis. In vivo ROS− drugs induced macrophage-stem cell interaction and grooming behavior, while ROS+ drugs enhanced the macrophage-stem cell interaction, but not grooming. Collectively, the work described herein has identified ROS as a signal that upregulates surface CALR and promotes macrophage-stem cell interactions, safeguarding the development of stem cells that are stressed or damaged.
# As described in the examples herein, some CALR agonists do stimulate reactive oxygen species (ROS) production; or stimulate ROS production to statistically significant levels. This group of CALR agonists are referred to herein as “ROS+ CALR agonists.” ROS+ CALR agonists include Ibudilast; zaprinast; FK-520; AG1478; bongkrekic acid; GW9508; fusidic acid; beta-lapachone; fusaric acid; fenspiride; zardaverine; docosahexaenoic acid, loxoprofen; AG1480; flufenamic acid; and MG-132.
# This group of CALR agonists are referred to herein as “ROS− CALR agonists.” ROS-CALR agonists include DL-threo-1-Phenyl-2-palmitoylamino-3-morpholino-1-propanol; cambinol; ganciclovir; 8-bromo-GMP; arvanil; thiocitrulline; and isoguvacine. In some embodiments, an at least one ROS− CALR agonist can be selected from the group consisting of: DL-threo-1-Phenyl-2-palmitoylamino-3-morpholino-1-propanol; ganciclovir; 8-bromo-GMP; arvanil; thiocitrulline; and isoguvacine.
# A chemical screen was conducted to identify surface CALR inducers in a ROS-associated and a ROS-independent manner (FIG. 4). Hits from the screen was validated in vivo as CALR inducers (FIGS. 5A-5B). ROS− drugs tended to induce macrophage-stem cell interaction and proliferation. ROS+ drugs tended to promote dooming (FIGS. 6A-6C).
row,Structure (SMILES),ROS production class of CALR agonist
1,"O=c1[nH]c(=S)[nH]c(-c2ccccc2)c1Cc1c(O)ccc2ccccc12 [cambinol, 5-[(2-hydroxynaphthalen-1-yl)methyl]-6-phenyl-2-sulfanylidene-1H-pyrimidin-4-one]",ROS−
2,"Nc1nc2c(nc(Br)n2[C@@H]2O[C@H](COP(=O)(O)O)[C@@H](O)[C@H]2O)c(=O)[nH]1 [8-bromo-GMP, 8-bromo-guanosine monophosphate]",ROS−
3,"Nc1nc(O)c2ncn(COC(CO)CO)c2n1 [ganciclovir, 2-Nor-2′-deoxyguanosine]",ROS−
4,"CCCCC/C=C\C/C=C\C/C=C\C/C=C\CCCC(=O)NCc1ccc(O)c(OC)c1 [arvanil, N-vanillylarachidonamide]",ROS−
5,CCCCCCCCCCCCCCCC(=O)N[C@H](CN1CCOCC1)[C@H](O)c1ccccc1 (racemic) [DL-threo-1-Phenyl-2-palmitoylamino-3-morpholino-1-propanol],ROS−
6,"CSC(=N)NCCC[C@H](N)C(=O)O.Cl.Cl [thiocitrulline, N^5-[imino(methylthio)methyl]-L-ornithine, dihydrochloride]",ROS−
7,"O=C(O)C1=CCNCC1 [isoguvacine, 1,2,3,6-tetrahydropyridine-4-carboxylic acid]",ROS−

# Same assay, conditions: CALR agonists that stimulate ROS production
row,Structure (SMILES),ROS production class of CALR agonist
1,"COc1cc2ncnc(Nc3cccc(Cl)c3)c2cc1OC [AG1478, N-(3-chlorophenyl)-6,7-dimethoxyquinazolin-4-amine]",ROS+
2,"CCCOc1ccccc1-c1nc2n[nH]nc2c(=O)[nH]1 [zaprinast, 5-(2-propoxyphenyl)-2,6-dihydrotriazolo[4,5-d]pyrimidin-7-one]",ROS+
3,"CO[C@H](C/C=C\C=C\CC/C=C/C[C@H](C)/C=C/C(=C\C(=O)O)CC(=O)O)/C(C)=C\C=C(/C)C(=O)O [bongkrekic acid, (2E,4Z,6R,8Z,10E,14E,17S,18E,20Z)-20-(carboxymethyl)-6-methoxy-2,5,17-trimethyldocosa-2,4,8,10,14,18,20-heptaenedioic acid]",ROS+
4,"CC[C@@H]1/C=C(\C)C[C@H](C)C[C@H](OC)[C@H]2O[C@@](O)(C(=O)C(=O)N3CCCC[C@H]3C(=O)O[C@H](/C(C)=C/[C@@H]3CC[C@@H](O)[C@H](OC)C3)[C@H](C)[C@@H](O)CC1=O)[C@H](C)C[C@@H]2OC [FK-520, ascomycin]",ROS+
5,"O=C(O)CCc1ccc(NCc2cccc(Oc3ccccc3)c2)cc1 [GW9508, 4-[[(3-phenoxyphenyl)methyl]amino]-benzenepropanoic acid]",ROS+
6,CC(=O)O[C@H]1C[C@@]2(C)[C@@H](C[C@@H](O)[C@H]3[C@@]4(C)CC[C@@H](O)[C@@H](C)[C@@H]4CC[C@@]32C)/C1=C(\CCC=C(C)C)C(=O)O [fusidic acid],ROS+
7,"CC1(C)CCC2=C(O1)c1ccccc1C(=O)C2=O [beta-lapachone, 2,2-dimethyl-3,4-dihydrobenzo[h]chromene-5,6-dione]",ROS+
8,"O=C1NCC2(CCN(CCc3ccccc3)CC2)O1 [fenspiride, 8-(2-phenylethy)-1-oxa-3,8-diazaspiro[4.5]decan-2-one, monohydrochloride]",ROS+
9,"CC(C)C[C@@H](C=O)NC(=O)[C@H](CC(C)C)NC(=O)[C@H](CC(C)C)NC(=O)OCc1ccccc1 [MG-132, benzyl N-[(2S)-4-methyl-1-[[(2S)-4-methyl-1-[[(2S)-4-methyl-1-oxopentan-2-yl]aamino]-1-oxopentan-2-yl]amino]-1-oxopentan-2-yl]carbamate] (Cbz-Leu-Leu-Leu-aldehyde)",ROS+
10,CCCCc1ccc(C(=O)O)nc1 [fusaric acid],ROS+
11,"CC(C)C(=O)c1c(C(C)C)nn2ccccc12 [Ibudilast, 2-methyl-1-(2-propan-2-ylpyrazolo[1,5-a]pyridin-3-yl)propan-1-one]",ROS+
12,"O=C(O)c1ccccc1Nc1cccc(C(F)(F)F)c1 [flufenamic acid, 2-[3-(trifluoromethyl)anilino]benzoic acid]",ROS+
13,"CC(C(=O)O)c1ccc(CC2CCCC2=O)cc1 (racemic) [loxoprofen, (RS)-2-{4-[(2-oxocyclopentyl)methyl]phenyl}propanoic acid]",ROS+
14,"COc1cc(-c2ccc(=O)[nH]n2)ccc1OC(F)F [zardaverine, 6-[4-(difluoromethoxy)-3-methoxyphenyl]-3(2H)-pyridazinone]",ROS+
15,CC/C=C\C/C=C\C/C=C\C/C=C\C/C=C\C/C=C\CCC(=O)O [docosahexaenoic acid],ROS+
